In patent US6737383B1, “Herbicidal oxadiazolidines” (priority 1999, dated 2004):

How the values were obtained:
wheat = assay: Test B pre/postemergence wheat; format: in vivo, Triticum aestivum
Procedure, shortened: (§1)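 Herbicidal effect was estimated by eye on a ten-point control scale after plants spent twelve to sixteen days in a greenhouse following soil or foliar treatment. Foliar sprays targeted plants at one to four leaves; all doses were formulated in a non-phytotoxic solvent with surfactant.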

morningglory = assay: Test B pre/postemergence morningglory; format: in vivo, Ipomoea hederacea
Procedure, shortened: as §1

smallflower flatsedge = assay: Test B flood test smallflower flatsedge; format: in vivo, Cyperus difformis; settings: flood test species
Procedure, shortened: (§2)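 Read-out is a visual response score from 0 (no effect) to 10 (complete control), assigned by comparison with untreated controls. Treatment was applied at the 2-leaf stage, and plants stayed in the greenhouse for twelve to sixteen days before scoring.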

duck salad = assay: Test B flood test duck salad; format: in vivo, Heteranthera limosa; settings: flood test species
Procedure, shortened: as §2

giant foxtail = assay: Test B pre/postemergence giant foxtail; format: in vivo, Setaria faberii
Procedure, shortened: as §1

bamyardgrass = assay: Test B flood test barnyardgrass; format: in vivo, Echinochloa crus-galli; settings: flood test species
Procedure, shortened: as §2

cocklebur = assay: Test B pre/postemergence cocklebur; format: in vivo, Xanthium strumarium
Procedure, shortened: as §1

sugar beet = assay: Test B pre/postemergence sugar beet; format: in vivo, Beta vulgaris
Procedure, shortened: as §1

blackgrass = assay: Test B pre/postemergence blackgrass; format: in vivo, Alopecurus myosuroides
Procedure, shortened: as §1

velvetleaf = assay: Test B pre/postemergence velvetleaf; format: in vivo, Abutilon theophrasti
Procedure, shortened: as §1

purple nutsedge = assay: Test B pre/postemergence purple nutsedge; format: in vivo, Cyperus rotundus
Procedure, shortened: as §1

rape = assay: Test B pre/postemergence rape; format: in vivo, Brassica napus
Procedure, shortened: as §1

soybean = assay: Test B pre/postemergence soybean; format: in vivo, Glycine max
Procedure, shortened: as §1

surinam grass = assay: Test B pre/postemergence surinam grass; format: in vivo, Brachiaria decumbens
Procedure, shortened: as §1

crabgrass = assay: Test B pre/postemergence crabgrass; format: in vivo, Digitaria sanguinalis
Procedure, shortened: as §1

rice = assay: Test B flood test rice; format: in vivo, Oryza sativa; settings: flood test species
Procedure, shortened: as §2

bedstraw = assay: Test B pre/postemergence bedstraw; format: in vivo, Galium aparine; settings: Postemergence, Rate 500 g/ha; scale of 0 to 10 where 0 is no effect and 10 is complete control
Procedure, shortened: as §1

wild oat = assay: Test B pre/postemergence wild oat; format: in vivo, Avena fatua
Procedure, shortened: as §1

corn = assay: Test B pre/postemergence corn; format: in vivo, Zea mays
Procedure, shortened: as §1

pigweed = assay: Test B pre/postemergence pigweed; format: in vivo, Amaranthus retroflexus
Procedure, shortened: as §1

[1] = Postemergence, Rate 500 g/ha, scale of 0 to 10 where 0 is no effect and 10 is complete control
[2] = Preemergence, Rate 62 g/ha, scale 0 to 10 (0 no effect, 10 complete control)
[3] = Preemergence, Rate 125 g/ha, scale of 0 to 10 where 0 is no effect and 10 is complete control
[4] = Preemergence, Rate 250 g/ha, scale 0 to 10, 0 is no effect, 10 is complete control
[5] = Preemergence, Rate 500 g/ha, scale 0 to 10, 0 is no effect, 10 is complete control
[6] = Postemergence, Rate 250 g/ha, scale 0 to 10, 0 is no effect, 10 is complete control
[7] = Rate 62 g/ha, Pre-emergence, visual evaluation after twelve to sixteen days
[8] = Rate 125 g/ha, under heading Pre-emergence, visual evaluation after twelve to sixteen days
[9] = Rate 500 g/ha, Pre-emergence, scale 0 to 10 (0 no effect, 10 complete control)
[10] = Postemergence, Rate 125 g/ha, scale 0 to 10, 0 is no effect, 10 is complete control
[11] = Rate 62 g/ha, Postemergence, scale of 0 to 10 where 0 is no effect and 10 is complete control
[12] = Preemergence, Rate 250 g/ha, scale of 0 to 10 where 0 is no effect and 10 is complete control

## CC(C)Cn1c(=O)on(C(=O)N(c2ccccc2)C(C)C)c1=O [Compound 410]
wheat; [1]
  Wheat plant response rating: 4
wheat; [2]
  Plant response rating, Wheat: 0
wheat; [3]
  Plant response rating, Wheat: 3
wheat; [4]
  Wheat plant response rating: 7
wheat; [5]
  Wheat plant response rating: 8
morningglory; [6]
  Plant response rating, Morningglory: 8
morningglory; [1]
  Morningglory plant response rating: 8
morningglory; [2]
  Plant response rating, Morningglory: 0
morningglory; [3]
  Plant response rating, Morningglory: 0
morningglory; [4]
  Morningglory plant response rating: 0
morningglory; [5]
  Morningglory plant response rating: 0
Smallflower flatsedge; [7]
  Plant response rating, S. Flatsedge (0 to 10 scale, 0 is no effect, 10 is complete control): 3
Smallflower flatsedge; [8]
  S. Flatsedge plant response rating (0 to 10 scale, 0 is no effect, 10 is complete control): 3
Smallflower flatsedge; [9]
  S. Flatsedge plant response rating: 9
Duck salad; [7]
  Plant response rating, Ducksalad (0 to 10 scale, 0 is no effect, 10 is complete control): 0
Duck salad; [8]
  Ducksalad plant response rating (0 to 10 scale, 0 is no effect, 10 is complete control): 0
Duck salad; [9]
  Ducksalad plant response rating: 2
Giant foxtail; [10]
  Plant response rating, Giant foxtail: 9
Giant foxtail; [6]
  Plant response rating, Giant foxtail: 9
Giant foxtail; [1]
  Giant foxtail plant response rating: 9
Giant foxtail; [2]
  Plant response rating, Giant foxtail: 9
Giant foxtail; [3]
  Plant response rating, Giant foxtail: 9
Giant foxtail; [4]
  Giant foxtail plant response rating: 10
Giant foxtail; [5]
  Giant foxtail plant response rating: 10
Giant foxtail; [11]
  Giant foxtail plant response rating: 8
bamyardgrass; [7]
  Plant response rating, Barnyardgrass (0 to 10 scale, 0 is no effect, 10 is complete control): 0
bamyardgrass; [8]
  Barnyardgrass plant response rating (0 to 10 scale, 0 is no effect, 10 is complete control): 4
bamyardgrass; [9]
  Barnyardgrass plant response rating: 9
cocklebur; [10]
  Plant response rating, Cocklebur: 0
cocklebur; [6]
  Plant response rating, Cocklebur: 0
cocklebur; [1]
  Cocklebur plant response rating: 1
cocklebur; [2]
  Plant response rating, Cocklebur: 0
cocklebur; [3]
  Plant response rating, Cocklebur: 0
cocklebur; [4]
  Cocklebur plant response rating: 0
cocklebur; [5]
  Cocklebur plant response rating: 0
cocklebur; [11]
  Cocklebur plant response rating: 0
Sugar beet; [6]
  Plant response rating, Sugarbeets: 7
Sugar beet; [1]
  Sugarbeets plant response rating: 8
Sugar beet; [2]
  Plant response rating, Sugarbeets: 0
Sugar beet; [3]
  Plant response rating, Sugarbeets: 0
Sugar beet; [4]
  Sugarbeets plant response rating: 0
Sugar beet; [5]
  Sugarbeets plant response rating: 0
blackgrass; [10]
  Plant response rating, Blackgrass: 8
blackgrass; [6]
  Plant response rating, Blackgrass: 9
blackgrass; [1]
  Blackgrass plant response rating: 9
blackgrass; [2]
  Plant response rating, Blackgrass: 3
blackgrass; [3]
  Plant response rating, Blackgrass: 8
blackgrass; [12]
  Blackgrass plant response rating: 8
blackgrass; [5]
  Blackgrass plant response rating: 10
velvetleaf; [6]
  Plant response rating, Velvetleaf: 0
velvetleaf; [1]
  Velvetleaf plant response rating: 0
velvetleaf; [2]
  Plant response rating, Velvetleaf: 3
velvetleaf; [3]
  Plant response rating, Velvetleaf: 4
velvetleaf; [4]
  Velvetleaf plant response rating: 6
velvetleaf; [5]
  Velvetleaf plant response rating: 8
Purple nutsedge; [6]
  Plant response rating, Nutsedge: 0
Purple nutsedge; [1]
  Nutsedge plant response rating: 0
Purple nutsedge; [2]
  Plant response rating, Nutsedge: 0
Purple nutsedge; [3]
  Plant response rating, Nutsedge: 0
Purple nutsedge; [4]
  Nutsedge plant response rating: 0
rape; [6]
  Plant response rating, Rape: 7
rape; [1]
  Rape plant response rating: 7
rape; [2]
  Plant response rating, Rape: 0
rape; [3]
  Plant response rating, Rape: 0
rape; [4]
  Rape plant response rating: 2
rape; [5]
  Rape plant response rating: 8
soybean; [6]
  Plant response rating, Soybean: 5
soybean; [1]
  Soybean plant response rating: 6
soybean; [2]
  Plant response rating, Soybean: 0
soybean; [3]
  Plant response rating, Soybean: 0
soybean; [4]
  Soybean plant response rating: 0
soybean; [5]
  Soybean plant response rating: 3
Surinam grass; [10]
  Plant response rating, B. signalgrass: 0
Surinam grass; [6]
  Plant response rating, B. signalgrass: 5
Surinam grass; [1]
  B. signalgrass plant response rating: 7
Surinam grass; [2]
  Plant response rating, B. signalgrass: 1
Surinam grass; [3]
  Plant response rating, B. signalgrass: 5
Surinam grass; [12]
  B. signalgrass plant response rating: 7
Surinam grass; Preemergence, Rate 500 g/ha, scale of 0 to 10 where 0 is no effect and 10 is complete control
  B. signalgrass plant response rating: 10
Surinam grass; [11]
  B. signalgrass plant response rating: 0
crabgrass; [10]
  Plant response rating, Crabgrass: 4
crabgrass; [6]
  Plant response rating, Crabgrass: 8
crabgrass; [1]
  Crabgrass plant response rating: 10
crabgrass; [2]
  Plant response rating, Crabgrass: 7
crabgrass; [3]
  Plant response rating, Crabgrass: 9
crabgrass; [4]
  Crabgrass plant response rating: 10
crabgrass; [5]
  Crabgrass plant response rating: 10
crabgrass; [11]
  Crabgrass plant response rating: 4
rice; [7]
  Plant response rating, Rice (0 to 10 scale, 0 is no effect, 10 is complete control): 0
rice; [8]
  Rice plant response rating (0 to 10 scale, 0 is no effect, 10 is complete control): 0
rice; [9]
  Rice plant response rating: 5
bedstraw
  Bedstraw plant response rating: 7
Wild oat; [1]
  Wild oats plant response rating: 5
Wild oat; [2]
  Plant response rating, Wild oats: 3
Wild oat; [3]
  Plant response rating, Wild oats: 6
Wild oat; [4]
  Wild oats plant response rating: 7
Wild oat; [5]
  Wild oats plant response rating: 10
corn; [10]
  Plant response rating, Corn: 0
corn; [6]
  Plant response rating, Corn: 0
corn; [1]
  Corn plant response rating: 3
corn; [2]
  Plant response rating, Corn: 0
corn; [3]
  Plant response rating, Corn: 0
corn; [4]
  Corn plant response rating: 4
corn; [5]
  Corn plant response rating: 9
corn; [11]
  Corn plant response rating: 0
pigweed; [6]
  Plant response rating, Redroot pigweed: 0
pigweed; [1]
  Redroot pigweed plant response rating: 2
pigweed; [2]
  Plant response rating, Redroot pigweed: 0
pigweed; [3]
  Plant response rating, Redroot pigweed: 0
pigweed; [4]
  Redroot pigweed plant response rating: 2
pigweed; [5]
  Redroot pigweed plant response rating: 8
